Results from patent US4981861A, “Tricyclic imidazole derivatives” (Hoffmann-La Roche Inc., priority 1984, dated 1991).

Legend:
lesions of the stomach = assay: anti-ulcer activity (protection from indomethacin-induced lesions of the stomach, oral); type: in vivo, male rats; details: Rattus norvegicus, rats, p.o. 1 hour before and 2 hours after 20 mg/kg indomethacin p.o., dosage protecting 50% of the animals, read-out: Anti-ulcer ED 50
Procedure: The experimental procedure described hereinafter was used to determine the anti-ulcer activity:
Groups each comprising 8 male rats with a body weight of 130-150 g are used for each dosage of a test substance. Before the beginning of the experiment the animals receive no food for 24 hours, but receive water ad libitum. Various dosages of the substances to be tested (suspended in 0.5% tragacanth) or the vehicle alone (controls) are administered twice orally, namely 1 hour before and 2 hours after the oral administration of 20 mg/kg of indomethacin. In the control animals this dosage of indomethacin leads to lesions of the stomach within 5 hours. The animals are sacrificed 6 hours after the first administration of the substance under investigation (or of the vehicle alone). The rats which remain protected from the occurrence of macroscopically visible lesions to the mucous membrane of the stomach are counted. The ED is that dosage of a test substance at which 50% of the animals are protected from the occurence of such lesions.

[1] = acute toxicity (single oral administration to mice); details: mouse, in vivo, read-out: Toxicity LD 50
Text: In the following Table there are given for a series of compounds of formula I the results of the testing with respect to their anti-ulcer activity and to their gastric secretion-inhibiting activity. Moreover, this Table contains data concerning the acute toxicity (LD50 in the case of single oral administration to mice).

gastric acid secretion = assay: gastric acid secretion-inhibiting activity (4-methylhistamine-stimulated, Heidenhain pouch, oral); type: in vivo; details: Canis lupus familiaris, conscious beagle hounds, p.o., 50% inhibition of gastric acid production caused by i.v. 4-methylhistamine, read-out: Gastric acid secretion-inhibition ED 50
Procedure: The experimental procedure described hereinafter was used to determine the gastric acid secretion-inhibiting activity:
A part of the stomach fundus of female and male beagle hounds is separated from the remainder of the stomach in the form a pouch of the Heidenhain type (modification of the method described by Rudick et al. in J. Surgical Research 7, 383-398 (1967)). In the pouch there is fitted a steel cannula which is conducted externally through the abdominal wall. Before each experiment the animals receive no food for 18 hours, but receive water ad libitum. They are conscious and standing during the experiment and their gastric acid secretion is stimulated by the intravenous infusion of 4-methylhistamine, a selective agonist of the histamine H2 -receptors. The gastric acid production is determined in 15 minute fractions of the stomach pouch juice. As soon as the gastric acid production has a constant value, the substances to be tested are administered orally as a dry powder filled into gelatine capsules. The ED50 is that dosage of a test substance which brings about a 50% inhibition of the gastric acid production caused by 4-methylhistamine in the treated animals in comparison to the controls.

Structure (SMILES) | ED50 (lesions of the stomach) | LD50 [1] | ED50 (gastric acid secretion)
COc1c(C)cnc(CSc2nc3cc4c(cc3[nH]2)C(C)(C)C(=O)C4(C)C)c1C [A, 5,7-dihydro-2-[[(4-methoxy-3,5-dimethyl-2-pyridyl)-methyl]thio]-5,5,7,7-tetramethylindeno[5,6-d]imidazol-6(lH)-one] | 2 mg/kg | > 5000 mg/kg | 4.88 mg/kg
COc1c(C)cnc(C[S+]([O-])c2nc3cc4c(cc3[nH]2)C(C)(C)C(=O)C4(C)C)c1C (stereo not drawn) [B, 5,7-dihydro-2-[[(4-methoxy-3,5-dimethyl-2-pyridyl)-methyl]sulfinyl]-5,5,7,7-tetramethylindeno[5,6-d]imidazol-6(lH)-one] | 2.3 mg/kg | > 5000 mg/kg | 5.44 mg/kg
COc1ccnc(CSc2nc3cc4c(cc3[nH]2)C(C)(C)C(=O)C4(C)C)c1C [C, 5,7-dihydro-2-[[(4-methoxy-3-methyl-2-pyridyl)methyl]thio]-5,5,7,7-tetramethylindeno[5,6-d]imidazol-6(lH)-one] | 1.2 mg/kg | > 5000 mg/kg | 2.56 mg/kg
COc1ccnc(C[S+]([O-])c2nc3cc4c(cc3[nH]2)C(C)(C)C(=O)C4(C)C)c1C (stereo not drawn) [D, 5,7-dihydro-2-[[(4-methoxy-3-methyl-2-pyridyl)-methyl]sulfinyl]-5,5,7,7-tetramethylindeno[5,6-d]imidazol-6(lH)-one] | 1.3 mg/kg | > 5000 mg/kg | 3.59 mg/kg
COc1ccnc(C[S+]([O-])c2nc3cc4c(cc3[nH]2)OCO4)c1C (stereo not drawn) [E, 6-[[(4-methoxy-3-methyl-2-pyridyl)methyl]sulfinyl]-5H-1,3-dioxolo[4,5-f]benzimidazole] | 4 mg/kg | > 5000 mg/kg | 1.79 mg/kg
COc1c(C)cnc(C[S+]([O-])c2nc3cc4c(cc3[nH]2)OCO4)c1C (stereo not drawn) [F, 6-[[(4-methoxy-3,5-dimethyl-2-pyridyl)methyl]sulfinyl]-5H-1,3-dioxolo[4,5-f]benzimidazole] | 6 mg/kg | > 5000 mg/kg | 1.4 mg/kg
CON=C1C(C)(C)c2cc3nc([S+]([O-])Cc4nccc(OC)c4C)[nH]c3cc2C1(C)C (stereo not drawn) [H, 5,7-dihydro-2-[[(4-methoxy-3-methyl-2-pyridyl)methyl]sulfinyl]-5,5,7,7-tetramethylindeno[5,6-d]imidazol-6(lH)-one 0-methyl oxime] | 5 mg/kg | 1250 to 2500 mg/kg | 7.78 mg/kg
CON=C1C(C)(C)c2cc3nc(SCc4nccc(OC)c4C)[nH]c3cc2C1(C)C [I, 5,7-dihydro-2-[[(4-methoxy-3-methyl-2-pyridyl)methyl]thio]-5,5,7,7-tetramethylindeno[5,6-d]imidazol-6(lH)-one 0-methyl oxime] | 4 mg/kg | 1250 to 2500 mg/kg | 2.25 mg/kg
